# Source: US20240417747A1 (priority 2021, published 2024)
# “Also recorded” adds a separate entry of the source. Where a name gives a salt, the structure may show the parent alone. Read-outs that look alike come from different tables or passages of the source.
# Key:
# [1] = tested on: HLB positive C. sinensis 'Valencia' trees; assay type: in vivo, Citrus sinensis; details: for H2O2 concentration in exudates of phloem-enriched bark tissues / cell death (ion leakage) in exudates of phloem-enriched bark tissues: weekly foliar spray, six weeks
# [2] = tested on: C. sinensis protoplast cells; assay type: cell-based, Citrus sinensis
# [3] = tested on: CLas-positive stems of Valencia sweet orange; details: branches soaked in DPI 25 μM, 48 h, vs water
# Arabidopsis = details: cited from earlier work
# [4] = tested on: immortalized rat embryo fibroblasts; details: cited from earlier work
# [5] = tested on: ROS related genes in C. sinensis protoplast cells; assay type: cell-based, Citrus sinensis; details: GA 5 mg/L, 1.8 mM H2O2, 6 h
# [6] = tested on: HLB positive C. sinensis 'Valencia' and 'Vernia'; assay type: in vivo, Citrus sinensis
# [7] = tested on: CLas-positive 5-year-old C. sinensis trees; assay type: in vivo, Citrus sinensis; details: 7 days post trunk injection of streptomycin
# [8] = uric acid 1.8 mM, rutin 0.6 mM, listed as Uric acid
# [9] = GA 5 mg/L foliar spray weekly for six weeks
# [10] = GA 25 mg/L foliar spray weekly for six weeks
# [11] = 6-year-old 'Valencia' and 'Vernia', eight months after GA application
# [12] = GA 1,247 ppm foliar spray, 8 months after application
structure (smiles),measurement,setting,value
O=c1[nH]c(=O)c2[nH]c(=O)[nH]c2[nH]1 [uric acid],HLB symptoms compared with before treatment,"[1]; six weeks after first weekly foliar spray, uric acid 1.8 mM, rutin 0.6 mM, GA",significantly reduced
same,H2O2 concentration in exudates of phloem-enriched bark tissues,"[1]; uric acid 1.8 mM, rutin 0.6 mM",reduced
same,cell death (ion leakage) in exudates of phloem-enriched bark tissues,"[1]; uric acid 1.8 mM, rutin 0.6 mM",reduced
same,H2O2 concentration in exudates of phloem-enriched bark tissues,[1]; [8],reduce
same,cell death (ion leakage) in exudates of phloem-enriched bark tissues,[1]; [8],reduce
same,H2O2 concentration,[2]; addition of uric acid 0.2 mM (text cites FIG. 5C),reduced
same,cell death of protoplast cells caused by H2O2,"[2]; addition of uric acid 0.2 mM, 24 h",reduced
"c1ccc2c(c1)[I+]c1ccccc1-2 [DPI, diphenyleneiodonium]",ROS levels (H2O2 concentration) in phloem-enriched bark tissues of CLas-positive stems,[3],reduced
OO [H2O2],concentration inhibiting growth of plants,Arabidopsis,1 mM
same,cell death of C. sinensis protoplast cells,"[2]; H2O2 0.6 mmol/L or lower, 24 h",not
same,cell death of C. sinensis protoplast cells,"[2]; H2O2 1.8 mmol/L, 24 h",induced cell death
same,viability of protoplast cells (FDA staining),"[2]; different concentrations of H2O2, 24 h",kills
same,concentration inducing necrosis,[4],700 µmol/L
"C=C1C[C@]23C[C@@]1(O)CC[C@H]2[C@@]12C=C[C@H](O)[C@@](C)(C(=O)O1)[C@H]2[C@@H]3C(=O)O [GA, Gibberellic acid]",H2O2 caused by CLas (phloem exudates),[1]; [9],reduced
same,ion leakage caused by CLas (phloem exudates),[1]; [9],reduced
same,H2O2 caused by CLas (phloem exudates),[1]; [10],reduced
same,ion leakage caused by CLas (phloem exudates),[1]; [10],reduced
same,growth as indicated by new flushes,"[1]; six weeks after foliar spray, vs water control",promoted growth
same,death of C. sinensis protoplast cells caused by 1.8 mM H2O2,"[2]; GA 5 mg/L, 24 h",suppresses
same,expression of RbohD,[5],inhibited
same,"expression of genes encoding H2O2 scavenging enzymes catalases, ascorbate peroxidases and glutathione peroxidases",[5],induced
same,plant growth: canopy volume,[6]; [11],significantly promoted
same,plant growth: tree height,[6]; [11],significantly promoted
same,plant growth: trunk diameter,[6]; [11],significantly promoted
same,HLB disease symptoms,[6]; [12],significantly reduced; also recorded: suppresses
same,percentage of symptomatic leaves (ratio symptomatic leaves vs total leaves),[6]; [12],significantly reduced
same,HLB disease incidence (infected trees),[6]; in vivo,100%
"[H]/N=C(/N)N[C@H]1[C@H](O)[C@@H](O)[C@H](O[C@@H]2O[C@@H](C)[C@](O)(C=O)[C@H]2O[C@@H]2O[C@@H](CO)[C@H](O)[C@@H](O)[C@@H]2NC)[C@@H](N/C(N)=N\[H])[C@@H]1O [streptomycin, streptomycin sulfate]",H2O2 content in the phloem tissues,[7],significantly reduced
same,ion leakage in the phloem tissues,[7],significantly reduced
same,CLas titers,[7]; phloem tissues,significantly reduced
